Results published in paper PMC8330757, “Design and characterisation of piperazine-benzofuran integrated dinitrobenzenesulfonamide as Mycobacterium tuberculosis H37Rv strain inhibitors” (Journal of Enzyme Inhibition and Medicinal Chemistry, 2021).
≈ marks a conversion by molar mass, not a printed value. Read-outs that look alike come from different tables or passages of the source.

What was measured:
Mtb H37Rv (ATCC27294) = assay: In vitro anti-TB activity (MIC) against Mtb H37Rv; format: cell-based, Mycobacterium tuberculosis; conditions: for MIC: Mycobacterium tuberculosis, read-out: Anti-TB (MIC)
[1] = In vitro cytotoxicity, MTT assay; format: cell-based, human; conditions: human, A549 cells, read-out: Human cell lines A549 IC50 approximation
Procedure: (§1) The safety profile of the active hybrids was also accessed by testing in vitro cytotoxicity against human cell-line A549 cells at 50 μg/mL concentration by (4,5-dimethylthiazol-2-yl)-2,5-diphenyltetrazolium bromide (MTT) assay. […]
(§2) completion of starting material and formation of polar spot. The reaction mixture was concentrated to dry to give 7a-7d, used directly in next step.
(§3) 1.2. In-vitro Mtb MABA assay
(§4) Briefly, the inoculum was prepared from fresh LJ medium re -suspended in 7H9-S medium (7H9 broth, 0.1% casitone, 0.5% glycerol, supplemented oleic acid, albumin, dextrose, and catalase [OADC]), adjuste d to an OD590 1.0, and diluted 1:20; 100 µl was used as inoculum. Each drug stock solution was thawed and diluted in 7H9 -S at four-fold the final highest concentration tested. Serial two-fold dilutions of each drug were prepared directly in a sterile 96 -well microtiter plate using 100 µl 7H9 -S. A growth control containing no antibiotic and a sterile control were also prepared on each plate. Sterile water was added to all perimeter wells to avoid evaporation during the incubation. The plate was covered, seal ed in plastic bags and incubated at 37 °C in normal atmosphere. After 7 days incubation, 30 µl of Alamar blue solution was added to each well, and the plate was re -incubated overnight. A change in colour from blue (oxidised state) to pink (reduced) indicat ed the growth of bacteria, and the MIC was defined as the lowest concentration of drug that prevented this change in colour. […]
(§5) the concentration of […]. After 72 h of exposure, viability was assessed on the basis of cellular conversion of MTT into a formazan product using the Promega Cell Titer 96 non - radioactive cell proliferation assay.
(§6) 1.4. DPPH radical scavenging activity
(§7) The hydrogen atom or electron donation ability of some compounds were measured from the bleaching of the purple colored methanol solution of […] (DPPH). The spectrophotometric assay uses the stable radical DPPH as a reagent. 1 mL of various concentrations of the test compounds (5, 10, 25, 50 and 100 μg/mL) in methanol was added to 4 mL of 0.004% (w/v) methanol solution of DPPH. The reaction mixture was incubated at 37 °C.
(§8) The scavenging activity on DPPH was determined by measuring the absorbance at 517 nm after 30 min. All tests were performed in triplicate and the mean values were entered. The percent of inhibition (I %) of free radical production from DPPH was calculated by the following equation % of scavenging = [(A control – A sample)/ […]]. Where, A control is the […]

[2] = system: human cell-line A549 cells; assay: In vitro cytotoxicity, MTT assay; format: cell-based; conditions: 50 μg/mL, 72 h exposure
Procedure: as §1, §2, §3, §4, §5, §6, §7, §8

[3] = DPPH radical scavenging assay; conditions: absorbance at 517 nm after 30 min
Procedure: In TB, oxidative stress may result in tissue inflammation due to anti-TB drugs. The synthesised compounds have shown promising anti-TB activity and have the potential to develop as lead compounds. Therefore, it is necessary to evaluate the synthesised compounds for their antioxidant activity. Antioxidant activities of the synthesised compounds were measured using 2,2-diphenyl-1-picrylhydrazyl (DPPH) radical scavenging assay. DPPH radical scavenging activity is the most commonly used method for screening the antioxidant activities of the various natural as well as synthetic antioxidants. A lower IC50 value indicates greater antioxidant activity. […]
as §2, §3, §4, §5, §6, §7, §8

[4] = Mtb H37Rv, most active compounds tested in triplicates

Structure (SMILES) | MIC (Mtb H37Rv (ATCC27294)) [µg/mL] | IC50 at 72 h [1] [µg/mL] | % Cell inhibition at 50 μg/mL [2] [%] | DPPH IC50 [3] [µg/mL] | Anti-TB (MIC) (Mtb H37Rv (ATCC27294); [4]) [µg/mL] | MIC (Mtb H37Rv (ATCC27294); [4]) [µg/mL]
CCOC(=O)c1cc2cc(N3CCN(C(=O)C4CCCN(S(=O)(=O)c5ccc([N+](=O)[O-])cc5[N+](=O)[O-])C4)CC3)ccc2o1 (stereo not drawn) [Compound 4f, ethyl 5-(4-(1-((2,4-dinitrophenyl)sulphonyl)piperidine-3-carbonyl)piperazin-1-yl)benzofuran-2-carboxylate] | 1.56 ± 0.73 (≈ 2.53 µM) | > 50 | 22.75 | 39.01 | – | –
CCOC(=O)c1cc2cc(N3CCN(C(=O)[C@H]4CCCN4S(=O)(=O)c4ccc([N+](=O)[O-])cc4[N+](=O)[O-])CC3)ccc2o1 [Compound 4h, (R)-ethyl 5-(4-(1-((2,4-dinitrophenyl)sulphonyl)pyrrolidine-2-carbonyl)piperazin-1-yl)benzofuran-2-carboxylate] | > 25 | > 50 | 33.08 | 49.75 | – | –
CC[C@@H](CO)NCCN[C@@H](CC)CO [Ethambutol, reference compound] | – | – | – | – | 1.56 | 1.56 ± 0.76 (≈ 7.64 µM)
CCOC(=O)c1cc2cc(N3CCN(S(=O)(=O)c4ccc([N+](=O)[O-])cc4[N+](=O)[O-])CC3)ccc2o1 [Compound 4a, ethyl 5-(4-(2,4-dintrobenzenesulfonyl)piperazin-1-yl)benzofuran-2-carboxylate] | 0.78 ± 0.36 (≈ 1.55 µM) | > 50 | 20.80 | 15.25 | 0.78 | –
CCOC(=O)c1cc2cc(N3CCN(C(=O)C(C)(C)NS(=O)(=O)c4ccc([N+](=O)[O-])cc4[N+](=O)[O-])CC3)ccc2o1 [Compound 4j, ethyl 5-(4-(2-(2,4-dinitrophenylsulfonamido)-2-methylpropanoyl)piperazin-1-yl)benzofuran-2-carboxylate] | 0.78 ± 0.48 (≈ 1.32 µM) | > 50 | 39.28 | 20.43 | 0.78 | –
NC(=O)c1cc2cc(N3CCN(S(=O)(=O)c4ccc([N+](=O)[O-])cc4[N+](=O)[O-])CC3)ccc2o1 [Compound 4m, 5-(4-((2,4-dinitrophenyl)sulphonyl)piperazin-1-yl)benzofuran-2-carboxamide] | 25 (≈ 52.6 µM) | > 50 | 23.65 | 45.44 | – | –
CCOC(=O)c1cc2cc(N3CCN(C(=O)CNS(=O)(=O)c4ccc([N+](=O)[O-])cc4[N+](=O)[O-])CC3)ccc2o1 [Compound 4b, ethyl 5-(4-(2-(2,4-dinitrophenylsulfonamido)acetyl)piperazin-1-yl)benzofuran-2-carboxylate] | 3.12 ± 1.47 (≈ 5.56 µM) | > 50 | 37.41 | 50.33 | – | –
O=C(c1cc2cc(N3CCN(S(=O)(=O)c4ccc([N+](=O)[O-])cc4[N+](=O)[O-])CC3)ccc2o1)N1CCCCC1 [Compound 4o, (5-(4-((2,4-dinitrophenyl)sulphonyl)piperazin-1-yl)benzofuran-2-yl) (piperidin-1-yl)methanone] | 1.56 ± 0.36 (≈ 2.87 µM) | > 50 | 31.58 | 19.27 | 1.56 | –
CCOC(=O)c1cc2cc(N3CCN(C(=O)CCCNS(=O)(=O)c4ccc([N+](=O)[O-])cc4[N+](=O)[O-])CC3)ccc2o1 [Compound 4d, ethyl 5-(4-(4-(2,4-dinitrophenylsulfonamido)butanoyl)piperazin-1-yl) benzofuran-2-carboxylate] | 1.56 ± 0.36 (≈ 2.65 µM) | > 50 | 35.95 | 33.50 | – | –
O=C1O[C@H]([C@@H](O)CO)C(O)=C1O [Ascorbic acid, reference compound] | – | – | – | 12.7 | – | –
CCOC(=O)c1cc2cc(N3CCN(C(=O)C4CCN(S(=O)(=O)c5ccc([N+](=O)[O-])cc5[N+](=O)[O-])CC4)CC3)ccc2o1 [Compound 4e, ethyl 5-(4-(1-((2,4-dinitrophenyl)sulphonyl)piperidine-4-carbonyl)piperazin-1-yl)benzofuran-2-carboxylate] | 1.56 ± 0.97 (≈ 2.53 µM) | > 50 | 18.95 | 45.21 | – | –
CCOC(=O)c1cc2cc(N3CCN(C(=O)C4CCN(S(=O)(=O)c5ccc([N+](=O)[O-])cc5[N+](=O)[O-])C4)CC3)ccc2o1 (stereo not drawn) [Compound 4i, ethyl 5-(4-(1-((2,4-dinitrophenyl)sulphonyl)pyrrolidine-3-carbonyl)piperazin-1-yl)benzofuran-2-carboxylate] | 6.25 (≈ 10.4 µM) | > 50 | 19.38 | 52.44 | – | –
CCOC(=O)c1cc2cc(N3CCN(C(=O)[C@@H]4CCCN4S(=O)(=O)c4ccc([N+](=O)[O-])cc4[N+](=O)[O-])CC3)ccc2o1 [Compound 4g, (S)-ethyl 5-(4-(1-((2,4-dinitrophenyl)sulphonyl)pyrrolidine-2-carbonyl)piperazin-1-yl)benzofuran-2-carboxylate] | 6.25 (≈ 10.4 µM) | > 50 | 29.64 | 55.25 | – | –
O=C(Nc1ccccc1)c1cc2cc(N3CCN(S(=O)(=O)c4ccc([N+](=O)[O-])cc4[N+](=O)[O-])CC3)ccc2o1 [Compound 4n, 5-(4-((2,4-dinitrophenyl)sulphonyl)piperazin-1-yl)-N-phenylbenzofuran-2-carboxamide] | 3.12 ± 1.1 (≈ 5.66 µM) | > 50 | 27.98 | 40.64 | – | –
CCOC(=O)c1cc2cc(N3CCN(C(=O)C(NS(=O)(=O)c4ccc([N+](=O)[O-])cc4[N+](=O)[O-])c4ccccc4)CC3)ccc2o1 (stereo not drawn) [Compound 4k, ethyl 5-(4-(2-(2,4-dinitrophenylsulfonamido)-2-phenylacetyl)piperazin-1-yl) benzofuran-2-carboxylate] | > 25 | > 50 | 22.55 | 45.87 | – | –
CN1CCN(C(=O)c2cc3cc(N4CCN(S(=O)(=O)c5ccc([N+](=O)[O-])cc5[N+](=O)[O-])CC4)ccc3o2)CC1 [Compound 4p, (5-(4-((2,4-dinitrophenyl)sulphonyl)piperazin-1-yl)benzofuran-2-yl)(4-methylpiperazin-1-yl) methanone] | 6.25 (≈ 11.2 µM) | > 50 | 30.18 | 48.66 | – | –
NNC(=O)c1ccncc1 [Isoniazid, reference compound] | – | – | – | – | 0.05 | 0.05 ± 0.02 (≈ 0.365 µM)
CO[C@H]1/C=C/O[C@@]2(C)Oc3c(C)c(O)c4c(O)c(c(/C=N/N5CCN(C)CC5)c(O)c4c3C2=O)NC(=O)/C(C)=C\C=C\[C@H](C)[C@H](O)[C@@H](C)[C@@H](O)[C@@H](C)[C@H](OC(C)=O)[C@@H]1C [Rifampicin, reference compound] | – | – | – | – | 0.1 | 0.1 ± 0.04 (≈ 0.122 µM)
